Among the data in ChEMBL document CHEMBL4813934, “Investigation of Selected Flavonoid Derivatives as Potent FLT3 Inhibitors for the Potential Treatment of Acute Myeloid Leukemia” (J Nat Prod, 2021) are IC50 and inhibition values, retold here.

SMILES strings stand for the structures.

Assay [1] concerns the target T1, Receptor-type tyrosine-protein kinase FLT3 (Homo sapiens, UniProt P36888).
T1 sequence (P36888 whole entry): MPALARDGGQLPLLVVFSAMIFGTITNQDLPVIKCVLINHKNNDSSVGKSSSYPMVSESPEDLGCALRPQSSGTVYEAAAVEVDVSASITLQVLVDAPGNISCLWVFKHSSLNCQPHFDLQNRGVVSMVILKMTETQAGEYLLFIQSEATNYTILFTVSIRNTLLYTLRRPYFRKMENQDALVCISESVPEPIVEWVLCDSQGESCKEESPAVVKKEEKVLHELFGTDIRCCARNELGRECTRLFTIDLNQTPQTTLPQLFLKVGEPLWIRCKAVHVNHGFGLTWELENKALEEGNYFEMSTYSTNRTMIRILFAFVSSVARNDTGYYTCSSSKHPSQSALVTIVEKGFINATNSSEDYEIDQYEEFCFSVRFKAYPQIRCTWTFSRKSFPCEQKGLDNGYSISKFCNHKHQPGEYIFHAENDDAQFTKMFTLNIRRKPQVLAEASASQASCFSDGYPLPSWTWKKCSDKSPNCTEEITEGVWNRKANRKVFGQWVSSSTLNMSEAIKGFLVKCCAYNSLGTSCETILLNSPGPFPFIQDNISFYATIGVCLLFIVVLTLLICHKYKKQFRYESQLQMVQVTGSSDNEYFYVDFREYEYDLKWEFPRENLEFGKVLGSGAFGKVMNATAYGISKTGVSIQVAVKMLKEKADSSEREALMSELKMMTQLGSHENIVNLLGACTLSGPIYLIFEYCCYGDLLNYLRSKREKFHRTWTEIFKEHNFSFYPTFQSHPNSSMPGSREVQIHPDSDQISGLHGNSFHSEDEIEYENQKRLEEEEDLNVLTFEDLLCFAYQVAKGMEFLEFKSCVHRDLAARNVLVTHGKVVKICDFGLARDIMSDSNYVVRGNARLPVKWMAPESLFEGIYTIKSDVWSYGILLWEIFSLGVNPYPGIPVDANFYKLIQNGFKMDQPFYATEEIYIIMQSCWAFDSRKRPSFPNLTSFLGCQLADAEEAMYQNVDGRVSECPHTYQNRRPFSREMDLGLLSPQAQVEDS
As to the kind of experiment: Inhibition of recombinant His-tagged human FLT3 (564 to 958 residues) expressed in baculovirus expression system using tyr 02 as substrate incubated for 1 hr by Z'-LYTE assay.

The target in assay [2] is Receptor-type tyrosine-protein kinase FLT3 (Homo sapiens) (UniProt P36888). As to the kind of experiment: Inhibition of recombinant His-tagged human FLT3 (564 to 958 residues) expressed in baculovirus expression system at 10 uM using tyr 02 as substrate incubated for 1 hr by Z'-LYTE assay relative to control.
The target of assay [3] is Receptor-type tyrosine-protein kinase FLT3 (Homo sapiens, UniProt P36888, ITD). The experiment in a line: Inhibition of recombinant N-terminal GST/His6-tagged human FLT3 ITD mutant (571 to 993 residues) expressed in Sf9 insect cells incubated for 1 hr by LanthaScreen assay.
For assay [4], the target named is Receptor-type tyrosine-protein kinase FLT3 (Homo sapiens, UniProt P36888, D835Y). As to the kind of experiment: Inhibition of recombinant His-tagged human FLT3 D835Y mutant (564 to 958 residues) expressed in baculovirus expression system using tyr 02 as substrate incubated for 1 hr by Z'-LYTE assay.
The test system of a further assay is MOLM-13. As to the kind of experiment: Cytotoxicity against human MOLM-13 cells assessed as reduction in cell viability measured after 72 hrs by MTT assay. The format is functional, cell-based. The following applies: MOLM-13, 72 h. On the technique in general: Tetrazolium dyes change colour on reduction, which living cells bring about.
A further assay deals with MV4-11. As to the kind of experiment: Cytotoxicity against human MV4-11 cells assessed as reduction in cell viability measured after 72 hrs by MTT assay. The format is functional, cell-based. The conditions noted are these: MV4-11, 72 h.

As for `COc1ccc(-c2cc(=O)c3c(O)cc(O)cc3o2)cc1` [ACACETIN], the IC50 (commonly the point on the concentration scale where inhibition reaches its midpoint) in assay [1] amounted to 880 nM; in assay [3], 210 nM; in assay [4], 1000 nM; in the assay on MOLM-13 it was 9100 nM; in the assay on MV4-11, 6800 nM. In addition, the inhibition (usually the percentage by which the read-out fell short of the control) in assay [2] was greater than 80%.
With `COc1ccc(-c2cc(=O)c3c(O)c(OC)c(OC)cc3o2)cc1O` [EUPATORIN], the IC50 in assay [1] turned out to be 1100 nM. For the same compound, the inhibition in assay [2] is greater than 80%.
Take `COc1cc(O)c2c(=O)cc(-c3ccc(O)cc3)oc2c1` [GENKWANIN]: in assay [1], the IC50 stood at 1700 nM. For the same compound, in assay [2], the inhibition is greater than 80%.
